# Tests used:
# pERK = assay: Phosphoprotein kinetic profiles in bone marrow samples from healthy donors; assay type: cell-based, human; settings: 100 μM U0126 pre-incubation; healthy donor CD34^+, CD117^+ cells
# Description: (§1) Phosphoprotein kinetic profiles were analyzed in bone marrow aspiration samples from nine healthy, adult donors (i.e., normal bone marrow or NBM) and from five AML patients. Samples from healthy donors included 5 males and 4 females, ranging in age from 26 to 49 years. Approximately 10 to 20 mL of bone marrow (BM) samples were collected from the posterior iliac crest of the volunteers using IRB approved protocols. The BM samples were filtered using a 40 μm Nylon cell strainer to remove marrow particles and the white blood cell concentration determined using a blood analyzer. […] The samples were immediately used for subsequent experimentation.
# (§2) To assess the signal transduction response after growth factor simulation, 100 to 200 μL of processed samples including about 2×10^6 WBC/100 μL were added to tubes and incubated at 37° C. for 30 minutes. For inhibition experiments, cells were incubated with 100 μM U0126, 1 μg/mL rapamycin, or both for at least 20 minutes prior to cytokine addition and in all cases for 30 min prior to formaldehyde addition. […] After stimulation the cells were immediately fixed by the addition of formaldehyde to a final concentration of 4% v/v and incubated for 10 minutes at room temperature. Following fixation, red blood cells were lysed by the addition of TRITON-X/PBS solution (0.1% v/v final concentration Triton X-100) supplemented with a 1 x phosphatase inhibitor cocktail (PIC; final concentrations: 0.2 mM sodium orthovanadate, 2 mM sodium pyrophosphate decahydrate, 2 mM [3-glycerophosphate, and 10 mM sodium fluoride) and incubation at 37° C. for 20 minutes. The incubated solution was chilled by the addition of ice-cold Wash Buffer (final concentration 1×PBS and either 4% bovine serum albumin (BSA) or 4% heat-inactivated fetal bovine serum (FBS), supplemented with 1×PIC), and the samples were centrifuged at 300 g for 6 minutes at 4° C.). If the lysis was incomplete, samples were retreated with 0.1% Triton X-100 at 37° C. for 10 to 20 minutes. After removal of the supernatant, cells were washed twice in ice-cold Wash Buffer supplemented with 1×PIC and permeabilized by the addition of pre-chilled 80% methanol while simultaneously vortexing the tube and incubated on ice for 10 minutes. Methanol was removed by centrifugation, the pellet was washed with ice-cold 1×PBS, and non-specific binding was blocked by the addition of ice-cold Wash Buffer supplemented with 1×PIC and incubation at 4° C. for a minimum of 30 minutes.
# (§3) To stain cells with fluorescent conjugated monoclonal antibodies, the incubated solution was centrifuged to remove the supernatant and the pellet was incubated for 60 minutes at 4° C. with an antibody staining solution including 0.25 μg to 0.50 μg of pS6-Pacific Blue, pERK-ALEXA 488, pSTAT5-ALEXA 647, CD34-PE, CD45-PerCP, and CD117-PC7. Samples were washed three times with ice-cold Wash Buffer supplemented with 1×PIC, resuspended in 0.5 mL ice-cold Wash Buffer supplemented with 1×PIC including 0.5 μg/mL DAPI, and analyzed by flow cytometryusing a BD LSR II Flow Cytometer, equipped with a High Throughput Sampler (HTS).
# (§4) First, doublets, aggregates, and debris were excluded by gating on single cell events in the SSC-Area versus SSC-Height histogram. Then, in events passing through this gate, debris near the origin of the FSC-Area versus SSC-Area plot (gray in FIG. 4A) was excluded by drawing a gate around an area encompassing, primarily, lymphocytes, monocytes, and granulocytes (LMG, black in FIG. 4A). Next, in cells passing through the LMG gate, the blast region (circle in FIG. 4B) was identified in the CD45 versus SSC-Area histogram (FIG. 4B). From this blast population, CD34+, CD117+ cells were identified in the CD34 versus CD117 plot (boxed area in FIG. 4C).
# pS6 = assay: as above; assay type: cell-based, human; settings: at 4 min; 100 μM U0126
# Description: as §1, §2, §3, §4
smiles,measurement,setting,value
"N#CC(=C(/N)Sc1ccccc1N)/C(C#N)=C(\N)Sc1ccccc1N [U0126, reference compound]",Inhibition of SCF-stimulated ERK phosphorylation,pERK,completely inhibited
same,Inhibition of SCF-stimulated S6 phosphorylation,pS6,partially blocked
